Data set [1] concerns BRIN-BD11 cells. As to the kind of experiment: In vitro insulin secretion from BRIN-BD11 cells (radioimmunoassay). Format: cell-based. As to conditions: 20 min; for Effect on glucose-stimulated insulin secretion: 16.7 mM glucose, n=8 (Figure 1B); for Effect on GIP-induced insulin secretion: with 10^−7 M GIP, 5.6 mM glucose, n=8 (Figure 1C); for Effect on GLP-1 evoked insulin release: with 10^−7 M GLP-1, 5.6 mM glucose, n=8 (Figure 1D). The procedure:
The in vitro insulin secretory activity of test peptides was examined in BRIN-BD11 cells, cultured and maintained as previously described. For experimentation, BRIN-BD11 cells were seeded in 24-well plates at a cell density of 150000 cells/well, and allowed to attach overnight at 37°C. Following pre-incubation with Krebs–Ringer bicarbonate buffer (KRBB) (pH 7.4) supplemented with 0.5% (w/v) BSA and 1.1 mM glucose (40 min; 37°C), cells were then incubated with test peptides alone (10^−6–10^−12 M), or in combination with either GIP or GLP-1 (10^−7 M), at 5.6 or 16.7 mM glucose, as appropriate for 20 min. […] Aliquots of assay buffer (200 μl) were collected and stored at −20°C prior to assessment of insulin concentrations by an in-house radioimmunoassay. To confirm insulin secretory activity of Ac-NT/XN-8-Gln, pancreatic islets were isolated from lean C57BL/6 mice by collagenase digestion, as described previously and insulin secretion determined as outlined above (16.7 mM glucose), but over a 60-min test incubation period.
Figure 1 Acute effects of acetyl-neurotensin(8-13), xenin-8-Gln, Ac-NT/XN-8-Gln alone and in combination with GIP or GLP-1, on insulin release from BRIN-BD11 cells and isolated mouse islets BRIN-BD11 cells were incubated (20 min) with a range of concentrations (10^−12 to 10^−6 M) of acetyl-neurotensin(8-13), xenin-8-Gln or Ac-NT/XN-8-Gln alone (A,B) or in combination with GIP (C) or GLP-1 (D) in the presence of (A,C,D) 5.6 or (B) 16.7 mM glucose. (E) Murine islets were incubated (60 min) with Ac-NT/XN-8-Gln (10^−8 and 10^−6 M) in the presence 16.7 mM glucose. (A–E) Insulin release was measured using radioimmunoassay. Values represent means ± SEM (n=8 for (A–D) and n=5 for (E)). *P<0.05 and ***P<0.001 compared with respective glucose controls. ^∆P<0.05, ^∆∆P<0.01 and ^∆∆∆P<0.001 compared with respective 10^−7 M GIP or GLP-1 control.

Data set [2] can be described thus: Enzymatic stability in murine plasma. The class given is in vitro ADME. As to conditions: 37°C, HPLC separation, MS analysis, percentage from peak areas; for Percentage intact peptide remaining (%) 8 h / remaining at 8 h: 8-h incubation; for remaining at 2 h / remaining at 4 h / remaining at 8 h: mouse; for remaining at 2 h: 2-h incubation, read-out: Percentage intact peptide remaining (%) 2 h; for remaining at 4 h / Percentage intact peptide remaining (%) 4 h: 4-h incubation; for remaining at 4 h: read-out: Percentage intact peptide remaining (%) 4 h; for remaining at 8 h: read-out: Percentage intact peptide remaining (%) 8 h. Here is the method: When incubated together with murine plasma, Ac-NT/XN-8-Gln remained 100% intact up to and including 4 h, and over 90% peptide intact over an extended 8-h incubation period (Table 1).

For data set [3], the system named is BRIN-BD11 β-cells. As to the kind of experiment: β-cell proliferation, Ki-67 immunostaining. The class given is cell-based. The note with it: 18 h, 10^−8 and 10^−6 M, n=3–4, vs media control (Figure 2A). Here is the method:
BRIN-BD11 β-cells were used to investigate effects of test peptides (10^−8 and 10^−6 M) on β-cell proliferation and protection against apoptosis. GLP-1 was employed as a positive control for all studies. Ki-67 immunostaining was used to assess effects on proliferation. Briefly, cells were seeded on to coverslips (40000 cells per coverslip) and cultured overnight (18 h; 37°C), in the presence of test peptides (10^−8 and 10^−6 M). Cells were then washed with PBS, and fixed using 4% paraformaldehyde. Following antigen retrieval with citrate buffer (90°C for 20 min), tissues were blocked using 1.1% BSA for 30 min. Cells were then incubated with Ki-67 primary antibody (1:500; Abcam, ab15580), followed by Alexa Fluor® 488 secondary antibody (1:400, Invitrogen, A-11008). Coverslips were washed with PBS, mounted on slides for viewing using a fluorescent microscope (Olympus System Microscope) and photographed by DP70 camera adapter system. Proliferation frequency was expressed as percentage of total cells analysed. For analysis of the ability of test peptides (10^−8 and 10^−6 M) to protect against apoptosis, cells were seeded as above, but apoptosis evoked through activation of caspase 3 and 7 activity by a luminogenic, tetrapeptide sequence DEVD Caspase-Glo® 3/7 substrate. Caspase induced cleavage of the substrate was then assessed by an ApoLive-Glow™ Multiplex assay kit, according to the protocol provided by the manufacturer (Promega, Wisconsin, U.S.A.).
(A) Proliferation was measured using Ki-67 immunocytochemistry. (B) Caspase-3/7 activation was detected by luminescence.

The test system of data set [4] is isolated mouse islets. Nature of the data set: Insulin secretion from isolated mouse islets. Format: cell-based, C57BL/6 mice. The note with it: 16.7 mM glucose, 60 min, peptide 10^−8 and 10^−6 M, n=5 (Figure 1E). Here is the method:
The in vitro insulin secretory activity of test peptides was examined in BRIN-BD11 cells, cultured and maintained as previously described. For experimentation, BRIN-BD11 cells were seeded in 24-well plates at a cell density of 150000 cells/well, and allowed to attach overnight at 37°C. Following pre-incubation with Krebs–Ringer bicarbonate buffer (KRBB) (pH 7.4) supplemented with 0.5% (w/v) BSA and 1.1 mM glucose (40 min; 37°C), cells were then incubated with test peptides alone (10^−6–10^−12 M), or in combination with either GIP or GLP-1 (10^−7 M), at 5.6 or 16.7 mM glucose, as appropriate for 20 min. […] To confirm insulin secretory activity of Ac-NT/XN-8-Gln, pancreatic islets were isolated from lean C57BL/6 mice by collagenase digestion, as described previously and insulin secretion determined as outlined above (16.7 mM glucose), but over a 60-min test incubation period.
Figure 1 Acute effects of acetyl-neurotensin(8-13), xenin-8-Gln, Ac-NT/XN-8-Gln alone and in combination with GIP or GLP-1, on insulin release from BRIN-BD11 cells and isolated mouse islets BRIN-BD11 cells were incubated (20 min) with a range of concentrations (10^−12 to 10^−6 M) of acetyl-neurotensin(8-13), xenin-8-Gln or Ac-NT/XN-8-Gln alone (A,B) or in combination with GIP (C) or GLP-1 (D) in the presence of (A,C,D) 5.6 or (B) 16.7 mM glucose. […] (A–E) Insulin release was measured using radioimmunoassay. […]

Entries after “also recorded” stand apart in the source; their conditions may differ. No end group written: not given here.

The fraction remaining is what is left of the initial amount, in per cent. For the molecule HPQQPWIL [Xenin-8-Gln], in data set [1], the “Effect on glucose-stimulated insulin secretion” value is “retained significant insulinotropic actions”, the “Effect on GIP-induced insulin secretion” value is on record as “augmented” and the “Effect on GLP-1 evoked insulin release” value is “no impact”. Also, in data set [2], the “Percentage intact peptide remaining (%) 8 h” value was 94.1%, the share remaining at 2 h is 100% and the fraction remaining at 4 h was 98.3%. In data set [3], the “β-cell proliferation (Ki-67)” value is on record as “devoid of benefits”.

`CC[C@H](C)[C@H](NC(=O)[C@H](Cc1ccc(O)cc1)NC(=O)[C@@H]1CCCN1C(=O)[C@H](CCCNC(=N)N)NC(=O)[C@H](CCCNC(=N)N)NC(C)=O)C(=O)N[C@@H](CC(C)C)C(=O)O` [Acetyl-neurotensin(8-13)]: in data set [1], the “Effect on glucose-stimulated insulin secretion” value was “inhibited”, the “Effect on GIP-induced insulin secretion” value is on record as “no effect” and the “Effect on GLP-1 evoked insulin release” value is listed as “inhibit”. Moreover, in data set [2], the share remaining at 2 h was found to be 98.2%, the share remaining at 4 h stood at 94.4% and the amount remaining at 8 h came out at 89.6%. Further, the “β-cell proliferation (Ki-67)” value in data set [3] is “augmented”.

Ac-RRPYILHPQQPWIL [Ac-NT/XN-8-Gln]: in data set [1], the “Effect on GIP-induced insulin secretion” value is given as “augmented; also recorded: similar, but more prominent, bioactivity profile” and the “Effect on GLP-1 evoked insulin release” value is “perturb”. For the same molecule, in data set [2], the “Percentage intact peptide remaining (%) 4 h” value worked out at 100%, the “Percentage intact peptide remaining (%) 8 h” value was “over 90%”, the fraction remaining at 2 h amounted to 100% and the share remaining at 8 h is 91.7%. The “β-cell proliferation (Ki-67)” value in data set [3] is “augmented”. Also, in data set [4], the “Insulin release from isolated mouse islets” value is “Prominent (P<0.01) insulinotropic actions”.

glucagon-like peptide-1 [Native GLP-1]: the “Percentage intact peptide remaining (%) 4 h” value in data set [2] is given as “fully degraded”.
